According to PMC7876056, “Population Pharmacokinetic Analysis of Yimitasvir in Chinese Healthy Volunteers and Patients With Chronic Hepatitis C Virus Infection” (Frontiers in Pharmacology, 2021):
Entries after “also recorded” stand apart in the source; their conditions may differ.

Key:
[1] = system: chronic HCV genotype 1 infection; experiment: Phase 2 study of yimitasvir with sofosbuvir in patients with chronic HCV infection; assay type: in vivo, human; conditions: for Adverse reaction rate: with 400 mg sofosbuvir
Procedure: In phase 2 study, yimitasvir 100 or 200 mg was administered once daily for 12 weeks in combination with 400 mg sofosbuvir in patients with chronic HCV infection. […] The primary endpoint of phase 2 study was sustained virologic response [HCV RNA less than lower limit of quantification (LLOQ)] 12 (SVR12) weeks after the completion of treatment. SVR12 rates were achieved 100% in both 100 mg yimitasvir/400 mg sofobuvir and 200 mg yimitasvir/400 mg sofobuvir groups. […] The most common adverse reactions were neutropenia (3.9%), leukopenia (3.1%), hypercholesterolemia (3.1%) and fatigue (3.1%).
The current population PK analysis of yimitasvir was performed using rich and sparse PK samples collected from six clinical pharmacology trials [4 phase 1 ([Zhao et al., 2019]), 1 phase 1b ([Zhang et al., 2018]) and 1 phase 2 studies] in Chinese healthy volunteers and HCV-infected patients. Rich sampling entailed serial blood sampling at defined time points, and sparse sampling (single sample) only in phase 2 study entailed blood collection at every study visits. Patients with genotype 1 HCV infection were eligible, while patients with prior use of direct-acting antiviral agents (DAA) for HCV infection treatment were excluded in phase 1b and phase 2 studies.

[2] = system: CYP 2D6; conditions: cited from earlier work
[3] = cited from earlier work
[4] = dogs; cited from earlier work
[5] = system: CYP3A4; conditions: cited from earlier work
[6] = 100 or 200 mg with 400 mg sofosbuvir

Q: For `COC(=O)NC(C(=O)N1CCCC1c1ncc(-c2ccc(-c3ccc(-c4ccc5nc(C6CCCN6C(=O)C(NC(=O)OC)C(C)C)[nH]c5c4)c4c3C3CCC4C3)cc2)[nH]1)C(C)C` (stereo not shown) [yimitasvir], which Adverse reaction rate ([1]; 100 mg group) is on record?
A: 35.9%

Q: And the SVR12 rate ([1]; 100 mg yimitasvir/400 mg sofosbuvir once daily for 12 weeks)?
A: 100%

Q: What about the Adverse reaction rate ([1]; 200 mg group) of the same compound?
A: 36.9%

Q: And the SVR12 rate ([1]; 200 mg yimitasvir/400 mg sofosbuvir once daily for 12 weeks)?
A: 100%

Q: And the “Effect of co-medication of sofosbuvir on PK profile” value ([1]; 400 mg sofosbuvir)?
A: did not affect; also recorded: not affected by co-medication of sofosbuvir

Q: What about the “Adverse reaction: fatigue” value [1, 6] of the same compound?
A: 3.1%

Q: What about the “Adverse reaction: hypercholesterolemia” value [1, 6] of the same compound?
A: 3.1%

Q: What about the “Adverse reaction: leukopenia” value [1, 6] of the same compound?
A: 3.1%

Q: What about the “Adverse reaction: neutropenia” value [1, 6] of the same compound?
A: 3.9%

Q: And the “Severity of adverse reactions” value ([1]; most common adverse reactions)?
A: grade 1 or 2; also recorded: grade one or two

Q: What about the “Dose proportionality of exposure” value ([1]; patients, 100 or 200 mg with 400 mg sofosbuvir) of the same compound?
A: Less than dose proportionality

Q: What about the “SVR12 rate (primary endpoint)” value ([1]; phase 2 study overall, taken at least 2 h before or after a meal in most patients) of the same compound?
A: 100%

Q: And the “Inhibition of CYP2D6” value [2]?
A: does not inhibit

Q: And the Solubility profile [3]?
A: pH-dependent solubility profile

Q: What about the “Metabolism in hepatic microsomes” value [4] of the same compound?
A: No metabolism

Q: And the “Induction of CYP3A4” value [5]?
A: may be a weak inducer
